Measurements taken from patent US10117837B2, “Methods of preparing stimuli-responsive multifunctional nanoparticles” (priority 2017, dated 2018).

How the values were obtained:
OVCAR-3 cells [1] = test: Cellular uptake by fluorescence microscopy in OVCAR-3 cells; type: cell-based, human; settings: 4 hours, equivalent to 50 mg/mL DOX
Procedure: The cellular uptake of the stimuli-responsive multifunctional nanoparticle of the present invention and the intracellular drug delivery were investigated by fluorescence microscopy. Human ovarian cancer cells OVCAR-3 and mouse embryonic fibroblasts NIH3T3 were cultured to 70-80% confluence and seeded onto 4-well chamber slides (BD Falcon, USA) at a density of 1×10^5 cells/well. After incubation at 37° C. for 24 hours, DOX.HCl, the HA-cys-ADOX nanoparticles (referred to as HA NPs), or the LHRH-HA-cys-ADOX nanoparticles (referred to as LHRH NPs) dissolved in DMEM at concentrations equivalent to 50 mg/mL DOX was added to the cells for a 2-hour incubation at 37° C. Cells treated with DMEM were the negative control group (NC). Next, fluorescent dyes Lysotracker Green and DAPI in DMEM were sequentially added to the abovementioned cells to stain endosome/lysosome for 2 hours and nuclei for 1 hour. After all the reagents were removed, the cells were washed with PBS (pH 7.4) three times, followed by addition of a mounting medium to fix the cells and prevent fluorescence fading. Cells were examined using a fluorescent microscope (Zeiss, Germany).

[2] = tested on: OVCAR-3/luc orthotopic ovarian tumor; test: TUNEL staining of ovarian tumor sections; type: in vivo, nude mice; settings: after 20 days of treatment
Procedure: (§1) Tumors and normal ovaries from mice with different treatments were collected for histological assay after mice were sacrificed. […] paraffin tissue sections were prepared for analysis. Morphology of tumors and normal ovaries were examined by haematoxylin and eosin (H&E) staining. TUNEL staining were used for the live/dead assay in the tissue sections using DeadEnd™ Fluorometric TUNEL System (Promega, USA). Tissue sections were examined at magnification of 400× using fluorescent microscope (Zeiss, Germany).
(§2) The therapeutic effect of the stimuli-responsive multifunctional nanoparticle of the present invention on ovarian cancer cells was further analyzed histologically after the mice were treated differently as mentioned above for 20 days and sacrificed.

OVCAR-3 cells [3] = test: Cell viability (MTS assay) in OVCAR-3 cells; type: cell-based, human; settings: OVCAR-3, 48 hours, various concentrations
Procedure: (§3) The cytotoxicity and anticancer effect of the stimuli-responsive multifunctional nanoparticle of the present invention was evaluated by cell viability assay in NIH3T3 and OVCAR-3 cells. The cells were seeded in a 96-well plate at a density of 5×10^3 cells/well and incubated at 37° C. for 24 hours. Next, DOX.HCl, the HA-cys-ADOX nanoparticles, or the LHRH-HA-cys-ADOX nanoparticles dissolved in DMEM at predetermined concentrations equivalent to DOX was added to the cells. Cells treated with DMEM were the negative control group. After incubation at 37° C. for 48 hours, the cells were washed with PBS (pH 7.4). Cell viability was measured by MTS assay (CellTiter 96® AQueous One Solution Cell Proliferation Assay (Promega, USA)) according to the manufacturer's instructions and calculated as the ratio of light absorbance at […] of the experimental group to that of the negative control group.

NIH3T3 cells = test: Cell viability (MTS assay) in NIH3T3 cells; type: cell-based, mouse; settings: NIH3T3, 48 hours, various concentrations
Procedure: as §3

[4] = tested on: OVCAR-3/luc orthotopic ovarian tumor; test: Anti-tumor effect in orthotopic ovarian tumor xenograft model, ROI size by bioluminescence imaging; type: in vivo, nude mice; settings: day 20, dose equivalent to 5 mg/kg of DOX via tail vein
Text: The orthotopic human ovarian cancer xenograft model was established using 6-8 week old female athymic nude mice purchased from National Laboratory Animal Center (Taipei, Taiwan). All mouse procedures were approved by the Institutional Animal Care and Use Committee (IACUC) of National Tsing Hua University. Prior to surgery, the mouse was laid dorsal side up under anesthetic. The incision was made left or right of the midline and directly above the ovarian fat pad. The ovarian fat pad was gently pulled out and rested onto a sterile saline soaked gauze pad. Under a dissecting microscope, the ovary was allowed for the insertion of a 30 gauge needle into the bursa. Suspension (1×10^6) of OVCAR-3/luc cells in a maximum volume of […] was slowly injected between the bursa and the ovary. […]
Growth of tumor was monitored by bioluminescence imaging (BLI) using in vivo imaging system (Caliper Life Sciences). […] Prior to being monitored, the tumor-implanted mice were injected intraperitoneally with 150 mg/kg of D-luciferin substrate. The Regions of Interest (ROIs) in tumor area were selected and used for quantification of tumor size by the software provided by the Caliper Life Sciences. Volumes or sizes of ROIs were calculated as L×W^2/2, where L was the largest and W was the smallest diameter of each ROI. […]

[5] = tested on: OVCAR-3/luc orthotopic ovarian tumor; test: H&E staining of ovarian tumor sections; type: in vivo, nude mice; settings: after 20 days of treatment
Procedure: as §1, §2

COc1cccc2c1C(=O)c1c(O)c3c(c(O)c1C2=O)C[C@@](O)(C(=O)CO)C[C@@H]3O[C@H]1C[C@H](N)[C@H](O)[C@H](C)O1.Cl [free DOX, doxorubicin hydrochloride]
difference in intensity of intracellular DOX fluorescence between OVCAR-3 and NIH3T3 cells (OVCAR-3 cells [1]): no difference
TUNEL fluorescence signal (apoptotic cells) in tumors [2]: no significant TUNEL fluorescence signal
cytotoxicity / anticancer effect (OVCAR-3 cells [3]): dose-dependent
cytotoxicity (NIH3T3 cells): dose-dependent
ROI size relative to that of the LHRH-NPs/Cy5.5-treated mice [4]: 4.3 fold
tumor cell morphology (H&E staining) [5]: cell proliferation with dense nuclei in random pattern
